The values below come from patent US20090088340A1, “METHODS FOR PREDICTING THE REDUCTION/OXIDATION (REDOX) REACTION ACTIVITY OF METAL COMPLEXES” (WESTERN CAROLINA UNIVERSITY, priority 2007, published 2009).

Where two headings read alike, the source gives them in different places. Marks after values point to notes of the source that are not given here.

The conditions of experiment [1]: cited from earlier work; for kapp,O2,A (Superoxide Reaction Data): full value printed in cell; for kapp,O2− (Superoxide Reaction): iron(III) complexes, aqueous solution, literature values (footnotes b, c, d, f).
For experiment [2] the following is noted: MeOPH^− association; from Summers et al. 2001; cited from earlier work.
Experiment [3] can be described thus: Reaction of metal complexes with superoxide (pulse radiolysis and literature rate data). Format: physicochemical. As to conditions: manganese(II) complexes, pulse radiolysis; for kapp,O2,B × 10^−2 (Superoxide Reaction Data): printed value is k × 10^−2; for kapp,O2,A × 10^−7 (Superoxide Reaction Data): printed value is k × 10^−7. How it is done: In addition, the rates at which O2.^− reacts with Fe^IIIPDTA^−, Mn^IIEDTA(H2O)^2−, Mn^IIPDTA^2−, and Mn^IIβ-EDDADP^2− were determined by pulse radiolysis. […] The data for the SOD enzyme was previously reported. See Viglino et al., J. Magn. Res., 1979, 34, 265. These reactivity patterns are consistent with literature precedents for similar complexes.
Rapid reactions of Fe^3+ with superoxide (O2.^−) appear to occur via inner-sphere mechanisms where metal/O2.^− association is rate limiting. Under this scenario, rates of metal/O2.^− reactions are expected to correlate with rates at which the metal complexes coordinate F^−.
In addition to metal/F^− association data, FIG. 2 includes published rate data for reactions of a water soluble manganese(III) porphyrin (Mn^IIITM-2-PyP^5+). One of the gray squares in FIG. 2 compares the rate of metal/MeOPH association to the catalytic rate constant for O2.^− dissmutation (kcat) for Mn^IIITM-2-PyP^5+. See Summers et al., Inorg. Chem., 2001, 40, 6547. Values of kcat for manganese(III) porphyrins are thought to be limited by rates of Mn^3+ reduction. See Batinic-Haberle et al., Inorg. Chem., 1999, 38, 4011-4022.

Experiment [4] in a line: Metal/fluoride association from F^− 19F NMR transverse relaxation enhancement (CPMG). In kind it is physicochemical. Particulars: for ΔH^‡ (Anion Binding Data): manganese(II) complexes; for ΔH^‡ (Anion Binding Data) / kapp,X− (Anion Binding Data): metal/F^− association; for kapp,X− (Anion Binding Data) / kapp,X− (Flouride Association Reaction): 25° C., 90% H2O/10% D2O; for kapp,X− (Flouride Association Reaction) / ΔH^‡ (Flouride Association Reaction): iron(III) complexes; for ΔH^‡ (Flouride Association Reaction): activation enthalpy. An excerpt:
CPMG is the standard technique for measuring transverse NMR relaxation times (T2). See, for example, Braun et al., “150 and More Basic NMR Experiments,” Wiley-VCH Weinheim, 1998, page 159.
Rate constants for metal/probe association reactions can be related directly to the effects of the metal complex on the NMR relaxation rates of probe nuclei.
R2,obs−R2,dia=kapp,F−[M] (6)
where R2,dia is the relaxation rate in diamagnetic solution and kapp,F− is the apparent second order rate constant for metal/F^− association. The effects of eleven paramagnetic metal complexes, Fe^IIIEDTA(H2O)^−, Fe^IIIEDTA(OH)^2−, Fe^IIIPDTA^−, Fe^IIIDTPA^2−, Fe^III2O(TTHA)^2−, Fe^III(CN)6^3−, Mn^IIEDTA(H2O)^2−, Mn^IIPDTA^2−, Mn^IIβ-EDDADP^2−, Mn^IIPO4^−, and Cu/Zn SOD on F^− ion ^19F NMR transverse relaxation rates (R2=1/T2) were studied in aqueous solutions as a function of temperature.
Without being bound to any one theory, the curvature of the plot can arise from a similarity in the magnitudes of outer-sphere and inner-sphere contributions to relaxation (R2,OS and R2,IS). See Dwek, R. A., Nuclear Magnetic Resonance in Biochemistry, Clarendon, Oxford, 1973. […] See Dwek, R. A., Nuclear Magnetic Resonance in Biochemistry, Clarendon, Oxford, 1973. To estimate the contribution of R2,OS, relaxation enhancement of the ^19F resonance of the trifluoroacetate anion (tfa) by Fe^IIIDTPA^2− was measured. R2,IS for the tfa resonance should be negligible due to the low basicity of the anion and the absence of a through bond pathway for magnetic interaction between the paramagnetic center and the ^19F nuclei. For the tfa resonance, R2,obs decreased with increasing temperature consistent with an outer-sphere interaction.
where α, β, and γ are constants. The γ term for F^− relaxation in Equation 7 was set equal to the slope of the least squares line for the tfa data, and ΔH^‡, α, and β were refined to give the curved trend line following the F^− data in FIG. 6. Dashed lines (a) and (b) in FIG. 6 represent the predicted outer-sphere and inner-sphere contributions to the relaxation rate, respectively. The 25° C. association rate constant and activation enthalpy in Table 1 (and used in FIG. 2) are from this refinement.

Experiment [5] has as its target T1, Cu/Zn SOD (Homo sapiens, UniProt P00441). In words: Reaction of Cu/Zn SOD with superoxide in the presence of an inhibitor. In kind it is biochemical. Particulars: 100 μM, 20 mM phosphate buffered saline pH 7.2 (neutral conditions). The method, then:
SOD was added to give an NMR relaxation rate of 28 s^−1. […] See Huang et al., Nature, 2000, 407, 390-395. […] It was also determined that under these conditions, reaction of the enzyme with superoxide was not inhibited.

In experiment [6] the target is T1, Cu/Zn SOD. Particulars: 100 μM; Huang et al., Nature 2000; cited from earlier work.
The target of a further experiment is SOD (Bos taurus, UniProt P00442). Particulars: from Viglino et al. 1979; cited from earlier work.
Sequence of SOD (P00442 2-152 limits assumed): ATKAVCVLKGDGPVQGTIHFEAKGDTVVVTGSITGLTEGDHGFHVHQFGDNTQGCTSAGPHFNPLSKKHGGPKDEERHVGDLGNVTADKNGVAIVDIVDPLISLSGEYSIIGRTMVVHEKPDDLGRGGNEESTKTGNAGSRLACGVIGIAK
For experiment [7] the following is noted: trend line of FIG. 8; pH 4.0 to 9.2.
Procedure: While Fe^IIIEDTA(OH)^2− is usually formed by deprotonation of coordinated water, its formation can also be thought of (in thermodynamic terms) as a ligand exchange. To investigate the thermodynamics of the formation of Fe^IIIEDTA(OH)^2−, the reaction of F^− with Fe^IIIEDTA(H2O)^− was studied as a function of pH. For Fe^IIIEDTA(H2O)^−, relaxation enhancements were measured for thirteen buffer conditions, having pH values ranging from 4.0 to 9.2. […] In this pH range, F^− 19F relaxation enhancement is governed by two protic equilibria, hydrolysis of Fe^IIIEDTA(H2O)^− and protonation of F^−, as described by Equations 9 and 10:
Fitting the data at pH>6 gives the thermodynamic equilibrium data for hydroxide binding.

T1 sequence (P00441 whole entry): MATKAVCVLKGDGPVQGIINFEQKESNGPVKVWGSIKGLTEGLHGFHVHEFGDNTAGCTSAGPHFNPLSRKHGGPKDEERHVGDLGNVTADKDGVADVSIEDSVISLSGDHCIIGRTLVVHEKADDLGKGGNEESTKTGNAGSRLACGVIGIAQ

For the compound `O.O.O.O.O.O.[Mn+2]` [Mn^II(H2O)6^2+], the “kapp,O2,A (Superoxide Reaction Data)” value in experiment [1] (from Pick-Kaplan and Rabini) is reported as 1.1 × 10^8 (f) M^−1s^−1. In experiment [2], the “kapp,X− (Anion Binding Data)” value was 5.8 × 10^6 (e) M^−1s^−1 and the “ΔH^‡ (Anion Binding Data)” value is listed as 47 ^(e) kJ/mol.

Take `O.O=C([O-])CN(CCN(CC(=O)[O-])CC(=O)[O-])CC(=O)[O-].[Mn+2]` [Mn^IIEDTA(H2O)^2−]: in experiment [3], the “kapp,O2,B × 10^−2 (Superoxide Reaction Data)” value came out at 4.0 ± 0.8 s^−1 and the “kapp,O2,A × 10^−7 (Superoxide Reaction Data)” value stood at 1.24 ± 0.24 M^−1s^−1. In experiment [4], the “ΔH^‡ (Anion Binding Data)” value is 7.41 kcal/mol. In addition, in experiment [4] (pH 7), the “kapp,X− (Anion Binding Data)” value worked out at 60000 M⁻¹ s⁻¹.

Turning to `COc1cc2c(cc1O)CC[C@@H]1[C@@H]2CC[C@]2(C)[C@@H](O)CC[C@@H]12` [Complex 2ME2, 2-methoxyestradiol], the “reaction of the enzyme with superoxide” value at Cu/Zn SOD [5] is “not inhibited”. The “inhibition of Cu/Zn SOD previously reported” value at Cu/Zn SOD [6] is “complete inhibition”.

Consider `O=C([O-])CN(CCN(CCN(CC(=O)[O-])CC(=O)[O-])CC(=O)[O-])CCN(CC(=O)[O-])CC(=O)[O-].[Fe+3].[Fe+3].[O-2]` [Fe^III2O(TTHA)^2−], for which the “kapp,X− (Flouride Association Reaction)” value in experiment [4] (pH 6) came out at 12 M⁻¹ s⁻¹. In addition, in experiment [4], the “ΔH^‡ (Flouride Association Reaction)” value is 9.32 kcal/mol. The “kapp,O2− (Superoxide Reaction)” value in experiment [1] is recorded as 1.2 × 10^4 (d) M^−1s^−1.

For the compound `O=P([O-])([O-])[O-].[Mn+2]` [Mn^IIPO4 ^−], the “ΔH^‡ (Anion Binding Data)” value in experiment [4] worked out at 10 kcal/mol. The “kapp,X− (Anion Binding Data)” value in experiment [4] (pH 6) is reported as 1.8 × 10^6 (b) M^−1s^−1. In addition, in experiment [1] (pH 6, from Cabelli and Bielski), the “kapp,O2,A (Superoxide Reaction Data)” value is given as 5.0 × 10^7 (b,c) M^−1s^−1.

For the compound `O=C([O-])CCN(CCN(CCC(=O)[O-])CC(=O)[O-])CC(=O)[O-].[Mn+2]` [Mn^IIβ-EDDADP^2−], in experiment [3], the “kapp,O2,B × 10^−2 (Superoxide Reaction Data)” value was 3.5 ± 0.7 s^−1 and the “kapp,O2,A × 10^−7 (Superoxide Reaction Data)” value is listed as 1.95 ± 0.40 M^−1s^−1. Moreover, in experiment [4], the “ΔH^‡ (Anion Binding Data)” value stood at 5.26 kcal/mol. The “kapp,X− (Anion Binding Data)” value in experiment [4] (pH 7) stood at 130000 M⁻¹ s⁻¹.

Regarding `F` [fluoride, fluoride anion], the “association constant for fluoride binding” value at SOD was 1.2 M⁻¹.

Take `O.O=C([O-])CN(CCN(CC(=O)[O-])CC(=O)[O-])CC(=O)[O-].[Fe+3]` [Fe^IIIEDTA(H2O)^−, iron (III) ethylenediamine-N,N,N″,N″-tetraacetic acid hydrate]: in experiment [4] (pH 6), the “kapp,X− (Flouride Association Reaction)” value is 93000 M⁻¹ s⁻¹. For the same compound, the “ΔH^‡ (Flouride Association Reaction)” value in experiment [4] stood at 9.32 kcal/mol. The “apparent rate constant for F^− association” value in experiment [4] (trend line of FIG. 8, pH 4.0 to 9.2) was 4e+06 M⁻¹ s⁻¹. Moreover, in experiment [7], the “apparent rate constant for HF association” value worked out at 93000 M⁻¹ s⁻¹. Further, the “kapp,O2− (Superoxide Reaction)” value in experiment [1] is recorded as 1.9 × 10^6 (f) M^−1s^−1.

In the case of `O=C([O-])CN(CCN(CC(=O)[O-])CC(=O)[O-])CCN(CC(=O)[O-])CC(=O)[O-].[Fe+3]` [Fe^IIIDTPA^2−, iron (III) diethylenetriaminepentaacetate], in experiment [4] (pH 6), the “kapp,X− (Flouride Association Reaction)” value came out at 240 M⁻¹ s⁻¹. Besides, the “ΔH^‡ (Flouride Association Reaction)” value in experiment [4] was 5.26 kcal/mol. Further, the “kapp,O2− (Superoxide Reaction)” value in experiment [1] is listed as 6 × 10^3 (c) M^−1s^−1.
